Source: patent US12325681B2, “Inhibitors of nitric oxide synthases (NOS), pharmaceutical products thereof, and methods thereof” (Gacter Inc., priority 2022, dated 2025)
Structures can show the parent of a compound that is named as a salt.

Molecular target: iNOS (Homo sapiens, UniProt P35228)
Assay: abcam NOS Inhibitor Screening Kit, IC50 (fluorescence)
Type: biochemical
Set-up: IC50; IC50
Settings: abcam NOS Inhibitor Screening Kit, Table C-1
Experimental: The IC50 of some compounds of the invention was determined using the abcam NOS Inhibitor Screening Kit. The procedure includes the following steps: (1) Dissolved a test compound to 10 mM in DMSO; (2) Diluted the test compound to 1 mM in NOS Assay Buffer; (3) Diluted 1 mM of the test compound stocks to 200 μM, 50 μM, 12.5 μM, 3.125 μM, 0.781 μM, and 0.195 μM in NOS Assay Buffer; (4) Diluted 1 mM DPI Control to 50.0 μM, 12.5 μM, 3.125 μM, 0.781 μM, 0.195 μM, and 0.0488 μM in NOS Assay Buffer; (5) Diluted NOS enzyme with 400 μL of NOS Assay Buffer; (6) Combined Diluted NOS Enzyme with 1.6 mL of NOS Assay buffer then transferred 20 μL of enzyme solution to all wells of 96-well Fluorescence plate except background wells. Added 20 μL of NOS Assay buffer to background wells. (7) Transferred 10 uL of each test compound dilution to the enzyme buffer mix according to the plate map (see addendum for plate map and raw data values). (8) Incubated 15 minutes at room temperature. (9) Added 11 μL of NOS reaction mix (according to manufacturer's protocol) to each well, mixed, and incubated at 37° C. for 1 hour. (10) Added 110 μL of NOS Assay Buffer to each well followed by 5 μL of Enhancer to each well, mixed, and incubated 10 minutes at room temperature; (11) Added 10 μL of Probe to each well, mixed, and incubated 10 minutes at room temperature; and (12) Added 5 μL of NaOH to each well, mixed, and incubated 10 minutes at room temperature. Measure Fluorescence at 360 nm excitation/450 nm emission.

Question: With `N#Cc1ccc(Cl)cc1CN(CCNC1CCC(O)CC1)c1ccccc1` (single isomer, unassigned) [GT-7023, 4-chloro-2-(((2-((4-hydroxycyclohexyl)amino)ethyl)(phenyl)amino)methyl) benzonitrile] as the molecule, how does the IC50 read?
Answer: The IC50 was 10.5 µM.

Question: `N#Cc1ccc(Cl)cc1CN(CCNC1CCC(O)CC1)c1ccccc1` (single isomer, unassigned) [GT-7024, 4-chloro-2-(((2-((4-hydroxycyclohexyl)amino)ethyl)(phenyl)amino)methyl) benzonitrile] was tested. Which IC50 did it give?
Answer: Its IC50 is 14.4 µM.

Question: `Cc1ccc(C#N)c(O[C@H](CCN)c2ccccc2)n1` [GT-5001, (R)-2-(3-amino-1-phenylpropoxy)-6-methylnicotinonitrile] was tested. Which IC50 did it give?
Answer: The IC50 was 1.59 µM.

Question: `CNCC[C@@H](Oc1nc(C)ccc1C#N)c1ccccc1` [GT-5002, (R)-6-methyl-2-(3-(methylamino)-1-phenylpropoxy)nicotinonitrile] was tested. Which IC50 did it give?
Answer: The IC50 was 1.35 µM.

Question: How did the IC50 turn out when `CNCC[C@@H](Oc1nc(C)ccc1Br)c1ccccc1` [GT-5012, (R)-3-((3-bromo-6-methylpyridin-2-yl)oxy)-N-methyl-3-phenylpropan-1-amine] was run?
Answer: Its IC50 is 12600 µM.

Question: Which IC50 does the source give for `CNCC[C@@H](Oc1nc(C(F)(F)F)ccc1C#N)c1ccccc1` [GT-5013, (R)-2-(3-(methylamino)-1-phenylpropoxy)-6-(trifluoromethyl) nicotinonitrile] here?
Answer: The IC50 was 23.3 µM.

Question: How did the IC50 turn out when `Cc1ccc(C#N)c(O[C@H](CCNCCO)c2ccccc2)n1` [GT-5014, (R)-2-(3-((2-hydroxyethyl)amino)-1-phenylpropoxy)-6-methylnicotinonitrile] was run?
Answer: The IC50 was 2.17 µM.

Question: Which IC50 does the source give for `Cc1ccc(C#N)c(O[C@H](CCNCCCO)c2ccccc2)n1` [GT-5015] here?
Answer: Its IC50 is 1.74 µM.

Question: For `Cc1ccc(C#N)c(O[C@H](CCN2CC[C@H](O)C2)c2ccccc2)n1` [GT-5016, 2-((R)-3-((S)-3-hydroxypyrrolidin-1-yl)-1-phenylpropoxy)-6-methyl nicotinonitrile], which IC50 is on record?
Answer: Its IC50 is 4.04 µM.

Question: For `Cc1ccc(C#N)c(O[C@H](CCN2CC[C@@H](O)C2)c2ccccc2)n1` [GT-5017, 2-((R)-3-((R)-3-hydroxypyrrolidin-1-yl)-1-phenylpropoxy)-6-methyl nicotinonitrile], which IC50 is on record?
Answer: The IC50 was 6.75 µM.

Question: With `Cc1ccc(C#N)c(O[C@H](CCNC(C)(C)C)c2ccccc2)n1` [GT-5018, (R)-2-(3-(tert-butylamino)-1-phenylpropoxy)-6-methylnicotinonitrile] as the molecule, how does the IC50 read?
Answer: Its IC50 is 5.04 µM.

Question: `Cc1ccc(C#N)c(O[C@H](CCNCCN(C)C)c2ccccc2)n1` [GT-5019, (R)-2-(3-((2-(dimethylamino)ethyl)amino)-1-phenylpropoxy)-6-methyl nicotinonitrile] was tested. Which IC50 did it give?
Answer: Its IC50 is 9.62 µM.

Question: Which IC50 does the source give for `Cc1ccc(C#N)c(O[C@H](CCNCCN2CCOCC2)c2ccccc2)n1` [GT-5020, (R)-6-methyl-2-(3-((2-morpholinoethyl)amino)-1-phenylpropoxy)nicotinonitrile] here?
Answer: The IC50 was 7.29 µM.

Question: With `Cc1ccc(C#N)c(O[C@H](CCNCCc2c[nH]cn2)c2ccccc2)n1` [GT-5023, (R)-2-(3-((2-(1H-imidazol-4-yl)ethyl)amino)-1-phenylpropoxy)-6-methylnicotinonitrile] as the molecule, how does the IC50 read?
Answer: The IC50 was 5.43 µM.

Question: With `Cc1ccc(C#N)c(O[C@H](CCNC[C@H](O)CO)c2ccccc2)n1` [GT-5024, 2-((R)-3-(((S)-2,3-dihydroxypropyl)amino)-1-phenylpropoxy)-6-methylnicotinonitrile] as the molecule, how does the IC50 read?
Answer: Its IC50 is 2.34 µM.

Question: For `Cc1ccc(C#N)c(O[C@H](CCNC[C@@H](O)CO)c2ccccc2)n1` [GT-5025, 2-((R)-3-(((R)-2,3-dihydroxypropyl)amino)-1-phenylpropoxy)-6-methylnicotinonitrile], which IC50 is on record?
Answer: Its IC50 is 3.56 µM.

Question: `Cc1ccc(C#N)c(O[C@H](CCNCC2CC2)c2ccccc2)n1` [GT-5031, (R)-2-(3-((cyclopropylmethyl)amino)-1-phenylpropoxy)-6-methylnicotinonitrile] was tested. Which IC50 did it give?
Answer: The IC50 was 4.54 µM.

Question: `N#Cc1ccc(Cl)cc1CN(CCN)c1ccccc1Cl` [GT-7004, 2-(((2-aminoethyl)(2-chlorophenyl)amino)methyl)-4-chlorobenzonitrile hydrochloride] was tested. Which IC50 did it give?
Answer: The IC50 was 5.79 µM.

Question: Which IC50 does the source give for `NCCN(Cc1cc(Cl)ccc1Br)c1ccccc1` [GT-7006, N1-(2-bromo-5-chlorobenzyl)-N1-phenylethane-1,2-diamine] here?
Answer: The IC50 was 157 µM.
